# Measured values from PubChem BioAssay (NCI).
# Values joined by “and” are separate entries in the source; they are usually repeats but may differ in a detail not shown here. Equal values may be shown once.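 Compound exposure: 48 hours, 5 concentrations, 96-well plates. At the GI50, growth is halved. TGI marks complete inhibition of growth.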
# Assays:
# Assay in all cases: NCI-60 cell line screen, 48 h
# [1] = system: RPMI-8226 leukemia
# [2] = system: 786-0 renal
# [3] = system: SK-MEL-5 melanoma
# [4] = system: A549 NSCLC
# [5] = system: NCI-H226 lung
# [6] = system: ACHN renal
# [7] = system: SN12C renal
# [8] = system: EKVX NSCLC
# [9] = system: SNB-75 CNS
# [10] = system: OVCAR-5 ovarian
Structure (SMILES),TGI [1],TGI [2] [µM],TGI [3],TGI [4],TGI [5],TGI [6],TGI [7],TGI [8] [µM],TGI [9],TGI [10] [µM],GI50 [1] [µM],GI50 [2] [µM],GI50 [3] [µM],GI50 [4] [µM],GI50 [5] [µM],GI50 [6] [µM],GI50 [7] [µM],GI50 [8] [µM],GI50 [9] [µM],GI50 [10] [µM]
Cc1c2cnccc2c(C)c2c1c1ccccc1n2CCOC(=O)c1ccccc1,42 µM,28.6,38.9 µM,43.1 µM,70 µM,56.3 µM,21 µM,47.9,44.7 µM,69,–,–,–,–,–,–,–,–,–,–
COc1ccc(C(=O)C(C(=O)CCC(=O)Nc2ccc(Cl)c(Cl)c2)c2ccc(OC)cc2)cc1 (centres undefined),> 100 µM,> 100,> 100 µM,> 100 µM,> 100 µM,> 100 µM,> 100 µM,> 100,> 100 µM,> 100,–,–,–,–,–,–,–,–,–,–
O=S1OC(c2ccccc2)(c2ccccc2)C(c2ccccc2)(c2ccccc2)O1,> 49.4 µM,> 100,> 100 µM,> 100 µM,> 100 µM,> 100 µM,> 100 µM,> 100,> 100 µM,> 100,–,–,–,–,–,–,–,–,–,–
CC(=O)C1(O)CC2(c3ccccc3)C(=O)C1(c1ccccc1)C(c1ccccc1)=C2c1ccccc1 (centres undefined),> 100 µM,> 100,> 100 µM,> 100 µM,> 100 µM,–,> 100 µM,> 100,> 100 µM,> 100,–,–,–,–,–,–,–,–,–,–
CCOC(=O)c1noc2c1CCc1c-2cn(Cc2ccc(OC)cc2)c1-c1cc(OC)c(OC)c(OC)c1,> 100 µM,> 100,66.7 µM,> 100 µM,> 100 µM,> 100 µM,> 100 µM,> 100,> 100 µM,> 100,2.85,3.65,0.493,3.8,> 100,3.51,3.92,3.92,3.65,4.72
COc1cc(/C=C2\CC3C4CC=C5CC(OC(C)=O)CC[C@]5(C)C4CC[C@]3(C)C2=O)ccc1OCCN1CCCC1 (some centres undefined),–,14,2.86 µM,> 48.6 µM,30.9 µM,17.9 µM,26.6 µM,35.4,–,26.4,–,4.51,1.38,7.98,14.1,5.52,13.7,18,–,13.4
CC[C@@]1(OP(=O)(O)O)C(=O)OCc2c1cc1n(c2=O)Cc2cc3ccccc3nc2-1,2.27 µM and 4.58 µM,–,0.458 µM and 0.46 µM,7.33 µM and 12.3 µM,1.16 µM and 0.66 µM,0.853 µM and 0.26 µM,6.08 µM and 0.619 µM,> 100,3.31 µM and 17.3 µM,–,0.187,0.0367,0.126,0.12,0.0379,0.0243,0.024,2.13,0.143,0.553
COc1ccc(-c2csc3c2-n2cccc2C3=O)cc1,–,> 100,–,> 100 µM,–,> 90.9 µM,> 100 µM,> 81.4,0.434 µM,> 100,0.0259,0.0497,0.0236,0.0664,0.0174,–,0.0681,0.597,–,0.0946
COc1ccc(C2COc3c(ccc(OC)c3OC)C2=O)cc1OC (centres undefined),> 100 µM,> 100,> 100 µM,> 100 µM,> 100 µM,> 100 µM,> 100 µM,> 100,> 100 µM,–,–,–,–,–,–,–,–,–,–,–
O=C(CCc1nnc2s/c(=C\c3ccc([N+](=O)[O-])cc3)c(=O)n12)Nc1ccc(Cl)c(Cl)c1,46.5 µM,35.7,> 100 µM,> 100 µM,37 µM,> 100 µM,63.9 µM,–,28 µM,> 100,–,–,–,–,–,–,–,–,–,–
O=C([CH-]C(=O)c1ccccc1)c1ccccc1.O=C([CH-]C(=O)c1ccccc1)c1ccccc1.O=C([CH-]C(=O)c1ccccc1)c1ccccc1.[Ga+3],> 100 µM,> 100,> 100 µM,> 100 µM,> 100 µM,> 100 µM,> 100 µM,–,> 100 µM,> 100,27,> 100,80.2,39.6,26.1,59,43.8,–,64.7,> 100
Cn1ncnc1[C@@H]1c2n[nH]c(=O)c3cc(F)cc(c23)N[C@H]1c1ccc(F)cc1,> 100 µM,> 100,> 100 µM,> 100 µM,> 100 µM,> 100 µM,> 100 µM,–,> 100 µM,> 100,> 100,> 100,> 100,> 100,> 100,> 100,> 100,–,> 100,> 100
Cn1cc(C2NC(=O)c3ccccc3N2)c2ccccc21 (centres undefined),–,> 100,5.64 µM,> 100 µM,3.59 µM,> 92.8 µM,> 100 µM,> 44.1,–,> 100,–,–,–,–,–,–,–,–,–,–
O=C1NC(=O)C(c2c[nH]c3ccccc23)=C1c1c[nH]c2ccccc12,> 25 µM,> 25,20.2 µM,> 25 µM,> 25 µM,> 25 µM,> 25 µM,–,> 25 µM,> 25,9.48,> 19.1,5.96,10.7,3.83,9.25,16.3,–,4.11,> 25
CCN1CCN(CCC(=O)Nc2cccc(-n3cc(-c4ccncc4)c(-c4ccc(Cl)c(OC)c4)n3)c2)CC1,–,2.2,1.83 µM,2.29 µM,7.31 µM,2.71 µM,2.88 µM,4.76,6.82 µM,4.84,–,0.701,0.507,0.593,1.26,0.782,0.623,1.06,0.392,1.42
CCOc1ccc(N(C)c2ccc(/C=C/C3=[N+](C)c4ccccc4C3(C)C)cc2)cc1,0.602 µM,1.92,0.784 µM,1.35 µM,2.18 µM,1.11 µM,1.52 µM,–,2.76 µM,2.92,0.139,0.562,0.192,0.201,0.369,0.306,0.309,–,1.13,1.28
